{"source": "patent US11198710B2", "about": "“Transgenic plant having herbicide resistance” (priority 2016, dated 2021)", "key": {"[1]": {"tested_on": "TaQ8GTB9", "assay": "Pyroxasulfone metabolizing activity based on fatty acid content in cultured rice cells", "format": "cell-based, wheat", "conditions": "cultured rice cells with TaQ8GTB9 gene; 10^−7M or 10^−6M pyroxasulfone, liquid culture 14 to 17 days", "procedure": "(§1) The transgenic cultured rice cells thus prepared were used for liquid culture in the presence of pyroxasulfone. Pyroxasulfone was added to the liquid medium as an acetone solution. The final acetone concentration was 0.1%. When liquid culture was carried out, cultured rice cells transformed with KLB-279 (a plasmid comprising Act1p (rice actin 1 promoter)::sGFP::NOSt incorporated into the MCS of PalSelect R-4) were designated as the control samples. Liquid culture was carried out as described below. […]\n(§2) Fatty acid was extracted using undecenoic acid (C11:1) as an internal standard. As analytical standards, Supelco FAME mix containing C14:0, C16:0, C16:1, C18:0, C18:1, C18:2, C18:3, C20:0, C22:0, C22:1, and C24:0 and other fatty acid methyl esters (C11:1, C15:0, C20:1, and C26:0) were used, and calibration curves thereof were prepared, followed by quantification. […] Quantitative and qualitative analyses were carried out as methyl esters, although fatty acid methyl esters were converted into fatty acids at the time of quantitative analysis. […]"}, "[2]": {"tested_on": "OsGSTF5", "assay": "Pyroxasulfone metabolizing activity based on fatty acid content in cultured rice cells", "format": "cell-based", "conditions": "cultured rice cells with OsGSTF5 gene; 10^−6 M treatment group", "procedure": "as §1, §2"}, "[3]": {"tested_on": "OsGSTU5", "assay": "Pyroxasulfone metabolizing activity based on fatty acid content in cultured rice cells", "format": "cell-based", "conditions": "cultured rice cells with OsGSTU5 gene; 10^−6 M treatment group", "procedure": "as §1, §2"}, "[4]": {"tested_on": "ZmB8A3K0", "assay": "Pyroxasulfone metabolizing activity based on the growth of cultured rice cells in medium", "format": "cell-based, maize", "conditions": "cultured rice cells with ZmB8A3K0 gene; N6D medium, 100 μM (10^−4M) pyroxasulfone, 2 weeks", "procedure": "(§3) The 2 lineages of cultured rice cells comprising the maize GST genes introduced thus prepared and the KLB-279 cultured transgenic rice cells (the control cells) were seeded on N6D medium, and pyroxasulfone resistance was inspected based on the growth of cultured rice cells 2 weeks later. Pyroxasulfone was subjected to the test as an acetone solution, the final acetone concentration to be added to the medium was 1%, and the final drug concentration was 10^−4 M."}, "[5]": {"tested_on": "ZmQ9FQD1", "assay": "Pyroxasulfone metabolizing activity based on the growth of cultured rice cells in medium", "format": "cell-based, maize", "conditions": "cultured rice cells with ZmQ9FQD1 gene; N6D medium, 100 μM (10^−4M) pyroxasulfone, 2 weeks", "procedure": "as §3"}, "[6]": {"tested_on": "rice plants comprising the TaQ8GTC1-R gene introduced therein", "assay": "Sensitivity of rice plants comprising the TaQ8GTC1-R gene to pyroxasulfone, gellan gum medium", "format": "in vivo", "conditions": "strains KLB-872#3-11 and KLB-872#2-4; 10^−8 to 10^−5M", "procedure": "Pyroxasulfone resistance of 2 rice plants strains (KLB-872#3-11 and KLB-872#2-4) was examined via the germination growth inhibitory test using a gellan gum medium. At the outset, Hoagland's mix and 3 g of gellan gum were suspended in 1 liter of distilled water and thoroughly dissolved therein by heating in a microwave. A fraction of the resultant (15 ml) was poured into a tubular bottle before it was cooled (30 ml was injected into the plate). Pyroxasulfone (acetone solution) was simultaneously added at the time of filling of gellan gum medium into the tubular bottle or plate, followed by thorough mixing. Rice hulls were soaked in a 50-fold diluted sodium hypochlorite solution (antiformin) (Wako) for approximately 20 minutes and then thoroughly washed with water. Sterilized seeds were soaked in distilled water and allowed to stand at 27° C. for germination (for approximately 2 days). […] Thereafter, rice seeds that were determined to have BS resistance with the use of root elongation as the indicator were transferred to gellan gum media containing pyroxasulfone (tubal bottles) at the final concentrations of 10^−8, 10^−7, 10^−6, and 10^−5M, respectively. […] These samples were grown at 27° C. under fluorescent light illumination (14 hours of a light period and 10 hours of a dark period) for 4 to 5 days, and the plant heights were then measured. […]"}, "[7]": {"tested_on": "cultured rice cells", "conditions": "culture in a pyroxasulfone-containing liquid medium; cited from earlier work"}}, "data": [{"smiles": "Cn1nc(C(F)(F)F)c(CS(=O)(=O)C2=NOC(C)(C)C2)c1OC(F)F", "note": "[Pyroxasulfone, 3-[5-(difluoromethoxy)-1-methyl-3-(trifluoromethyl)pyrazol-4-ylmethylsulfonyl]-4,5-dihydro-5,5-dimethyl-1,2-oxazole]", "values": [{"measurement": "pyroxasulfone metabolizing activity (C15:0 and VLCFA contents)", "setting": "[1]", "result": "no pyroxasulfone metabolizing activity"}, {"measurement": "pyroxasulfone metabolizing activity (C15:0 and VLCFA contents)", "setting": "[2]", "result": "no pyroxasulfone metabolizing activity"}, {"measurement": "pyroxasulfone metabolizing activity (C15:0 and VLCFA contents)", "setting": "[3]", "result": "no pyroxasulfone metabolizing activity"}, {"measurement": "pyroxasulfone metabolizing activity (growth of cultured rice cells)", "setting": "[4]", "result": "no pyroxasulfone metabolizing activity"}, {"measurement": "pyroxasulfone metabolizing activity (growth of cultured rice cells)", "setting": "[5]", "result": "no pyroxasulfone metabolizing activity"}, {"measurement": "sensitivity to pyroxasulfone", "setting": "[6]", "result": "sensitivity equivalent to that of wild-type plants"}, {"measurement": "C15:0 (pentadecanoic acid) content", "setting": "[7]", "result": "remarkably increased"}, {"measurement": "content of very-long-chain fatty acid (VLCFA)", "setting": "[7]", "result": "drastically decreases"}]}]}
